Assay results from US20240279205A1, “NOVEL BENZIMIDAZOLE DERIVATIVE” (Carna Biosciences, Inc., priority 2020, published 2024).
Counter-ions that a name gives are not always drawn.

Legend:
[1] = test system: STING activation (IFN-β production in THP-1 cells); test: Human IFN-β production inhibition test by cGAMP stimulation in THP-1 cells; assay type: cell-based; parameters: IFN-β bioinhibitory activity: scale not given here; settings: 2'3'-cGAMP transfection, 18 hours, IFN-β ELISA; for IC50: Homo sapiens, read-out: IFN-β bioinhibitory activity
Method: Human IFN-β production inhibition test by cGAMP stimulation
The inhibitory activity of test compounds against STING activation was evaluated by measuring the amount of IFN-β produced when human monocytic cell line THP-1 cells were stimulated with the endogenous ligand cGAMP.
After seeding THP-1 cells (ATCC) in a 96-well plate, PMA (Santa Cruz Biotechnology) adjusted to a concentration of 100 nM after addition was added, and incubated at 37° C. in a 5% CO2 incubator. It was cultured overnight (RPMI1640 medium containing 10% FBS, 50 U/mL penicillin/50 μg/mL streptomycin). A test compound solution adjusted to a final concentration of 0.001 to 1 μM was added to each well of this plate and cultured for 1 hour in a CO2 incubator (DMSO final concentration 0.1%). 0.12 μg/well of 2′3′-cGAMP (Invivogen, #tlrl-nacga23) was introduced into the cells by transfection using Lipofectamine2000 (Invitrogen) and cultured in a CO incubator for an additional 18 hours. After collecting the culture supernatant from each well, the amount of human IFN-β produced in the culture supernatant was measured by ELISA using R&D human IFN-β Duoset (R&D Systems).
Assuming that the human IFN-β production amount of the test compound-free and cGAMP-added group is 100%, and the human IFN-β production amount of the test compound-free and cGAMP-free group is 0%, the IC50 value was determined by regression analysis of the inhibitory rate determined from the amount of human IFN-β production at each compound concentration and the concentration of the test compound (logarithm).

human STING (hSTING) = biological target: T1, human STING (hSTING) (Homo sapiens, UniProt Q86WV6); test: Inhibition test of intracellular human STING (hSTING) pathway using SEAP reporter cells (HEK-Blue ISG), stimulation with Compound 3; assay type: cell-based; parameters: hSTING inhibitory activity: scale not given here; settings: Compound 3 10 nM stimulation, 21 hours
T1 construct: host or cells: HEK-Blue ISG cells (HEK293-derived SEAP reporter line)
T1 sequence (Q86WV6 whole entry H232R): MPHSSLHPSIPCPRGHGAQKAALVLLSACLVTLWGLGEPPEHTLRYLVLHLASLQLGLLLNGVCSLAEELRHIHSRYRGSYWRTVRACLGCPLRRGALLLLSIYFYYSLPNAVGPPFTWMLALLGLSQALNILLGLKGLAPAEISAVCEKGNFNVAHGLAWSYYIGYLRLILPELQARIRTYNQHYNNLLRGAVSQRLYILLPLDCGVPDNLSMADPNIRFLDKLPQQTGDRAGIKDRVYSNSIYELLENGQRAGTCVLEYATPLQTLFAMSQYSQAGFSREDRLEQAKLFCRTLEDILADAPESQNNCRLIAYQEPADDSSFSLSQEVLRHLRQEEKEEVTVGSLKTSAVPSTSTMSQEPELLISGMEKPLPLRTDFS
In short: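 HEK-Blue ISG cells with IRF-inducible SEAP reporter, pretreated 1 h with compound (final 0.1 to 10 μM), then stimulated with Compound 3 (final 10 nM) for 21 h at 37° C. Supernatant SEAP measured colorimetrically; IC50 from log-concentration regression, normalized to stimulated (100%) and unstimulated (0%) controls.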

SMILES	IC50 [1]	hSTING inhibitory activity (human STING (hSTING))	IFN-β bioinhibitory activity [1]
Fc1cc(F)c2nc(Nc3c[nH]c4ccc(Cl)nc34)[nH]c2c1 [Embodiment 86, N-(5-Chloro-1H-pyrrolo[3,2-b]pyridin-3-yl)-4,6-difluoro-1H-benzo[d]imidazol-2-amine formate]	≥ 1 µM	* *	–
Cc1cc(C)c2nc(Nc3c[nH]c4ccc(Cl)nc34)[nH]c2c1 [Embodiment 87, N-(5-Chloro-1H-pyrrolo[3,2-b]pyridin-3-yl)-4,6-dimethyl-1H-benzo[d]imidazol-2-amine]	0.1 to 1 µM	* *	–
Clc1cc2nc(Nc3c[nH]c4ccc(Br)nc34)[nH]c2cc1Cl [Embodiment 88, N-(5-bromo-1H-pyrrolo[3,2-b]pyridin-3-yl)-5,6-dichloro-1H-benzo[d]imidazol-2-amine]	0.1 to 1 µM	* * *	–
FC(F)(F)c1cccc2[nH]c(Nc3c[nH]c4ccc(Br)nc34)nc12 [Embodiment 89, N-(5-bromo-1H-pyrrolo[3,2-b]pyridin-3-yl)-4-(trifluoromethyl)-1H-benzo[d]imidazol-2-amine]	0.1 to 1 µM	* * *	–
CCCCn1c(Nc2c[nH]c3ccc(Br)nc23)nc2ccc(Oc3ccccc3)cc21 [Embodiment 91, N-(5-bromo-1H-pyrrolo[3,2-b]pyridin-3-yl)-1-butyl-6-phenoxy-1H-benzo[d]imidazol-2-amine]	0.1 to 1 µM	* * *	–
COCCn1c(Nc2c[nH]c3ccc(Br)nc23)nc2ccc(Oc3ccccc3)cc21 [Embodiment 93, N-(5-bromo-1H-pyrrolo[3,2-b]pyridin-3-yl)-1-(2-methoxyethyl)-6-phenoxy-1H-benzo[d]imidazol-2-amine]	0.1 to 1 µM	* * *	–
Clc1ccc2[nH]cc(Nc3nc4c(Cl)c(Cl)ccc4[nH]3)c2n1 [Embodiment 94, 4,5-dichloro-N-(5-chloro-1H-pyrrolo[3,2-b]pyridin-3-yl)-1H-benzo[d]imidazol-2-amine]	0.1 to 1 µM	* * *	–
Clc1ccc2[nH]cc(Nc3nc4cc(Br)ccc4[nH]3)c2n1 [Embodiment 95, 5-bromo-N-(5-chloro-1H-pyrrolo [3,2-b]pyridin-3-yl)-1H-benzo [d]imidazol-2-amine formate]	–	* *	* * *
C=C(C)c1ccc2[nH]c(Nc3c[nH]c4ccc(Cl)nc34)nc2c1 [Embodiment 100, N-(5-chloro-1H-pyrrolo[3,2-b]pyridin-3-yl)-5-(prop-1-en-2-yl)-1H-benzo[d]imidazole-2-amine]	–	* * *	* * *
C=Cc1ccc2[nH]cc(Nc3nc4cc(Oc5ccccc5)ccc4[nH]3)c2n1 [Embodiment 101, 5-phenoxy-N-(5-vinyl-1H-pyrrolo [3,2-b]pyridin-3-yl)-1H-benzo [d]imidazol-2-amine]	–	* * *	* *
CCc1ccc2[nH]cc(Nc3nc4cc(Oc5ccccc5)ccc4[nH]3)c2n1 [Embodiment 103, N-(5-ethyl-1H-pyrrolo[3,2-b]pyridin-3-yl)-5-phenoxy-1H-benzo [d]imidazol-2-amine]	0.1 to 1 µM	* *	–
CC(C)c1ccc2[nH]c(Nc3c[nH]c4ccc(Cl)nc34)nc2c1 [Embodiment 104, N-(5-Chloro-1H-pyrrolo[3,2-b]pyridin-3-yl)-5-isopropyl-1H-benzo[d]imidazol-2-amine]	–	* *	* *
Cn1c(Nc2c[nH]c3ncc(Cl)cc23)nc2ccc(Oc3ccccc3)cc21 [Embodiment 108, N-(5-Chloro-1H-pyrrolo[2,3-b]pyridin-3-yl)-1-methyl-6-phenoxy-1H-benzo[d]imidazol-2-amine]	≥ 1 µM	* *	–
Cn1c(Nc2c[nH]c3ncc(Cl)cc23)nc2cc(C(F)(F)F)ccc21 [Embodiment 109, N-(5-Chloro-1H-pyrrolo[2,3-b]pyridin-3-yl)-1-methyl-5-(trifluoromethyl)-1H-benzo[d] imidazol-2-amine]	0.1 to 1 µM	* *	–
C#Cc1ccc2[nH]cc(Nc3nc4cc(Oc5ccccc5)ccc4[nH]3)c2n1 [Embodiment 111, N-(5-ethynyl-1H-pyrrolo[3,2-b]pyridin-3-yl)-5-phenoxy-1H-benzo[d]imidazol-2-amine formate]	–	* * *	* *
Clc1ccc2[nH]cc(Nc3nc4cc(C5CCOCC5)ccc4[nH]3)c2n1 [Embodiment 112, N-(5-chloro-1H-pyrrolo[3,2-b]pyridin-3-yl)-5-(tetrahydro-2H-pyran-4-yl)-1H-benzo[d]imidazole-2-amine]	0.1 to 1 µM	* *	–
CCO/C=C/c1ccc2[nH]c(Nc3c[nH]c4ccc(Cl)nc34)nc2c1 [Embodiment 114, (E)-N-(5-chloro-1H-pyrrolo[3,2-b]pyridin-3-yl)-5-(2-ethoxyvinyl)-1H-benzo[d]imidazol-2-amine]	≥ 1 µM	* * *	–
CC(C)n1c(Nc2c[nH]c3ccc(Cl)nc23)nc2cc(Oc3ccccc3)ccc21 [Embodiment 116, N-(5-Chloro-1H-pyrrolo[3,2-b]pyridin-3-yl)-1-isopropyl-5-phenoxy-1H-benzo[d]imidazol-2-amine]	0.1 to 1 µM	* * *	–
CC(C)n1c(Nc2c[nH]c3ccc(Cl)nc23)nc2ccc(Oc3ccccc3)cc21 [Embodiment 117, N-(5-Chloro-1H-pyrrolo[3,2-b]pyridin-3-yl)-1-isopropyl-6-phenoxy-1H-benzo[d]imidazol-2-amine]	0.1 to 1 µM	* * *	–
Clc1ccc2[nH]cc(Nc3nc4cc(Oc5ccccc5)ccc4n3C3CC3)c2n1 [Embodiment 118, N-(5-Chloro-1H-pyrrolo[3,2-b]pyridin-3-yl)-1-cyclopropyl-5-phenoxy-1H-benzo[d]imidazol-2-amine]	0.1 to 1 µM	* * *	–
Clc1ccc2[nH]cc(Nc3nc4ccc(Oc5ccccc5)cc4n3C3CC3)c2n1 [Embodiment 119, N-(5-Chloro-1H-pyrrolo[3,2-b]pyridin-3-yl)-1-cyclopropyl-6-phenoxy-1H-benzo[d]imidazol-2-amine]	0.1 to 1 µM	* * *	–
Clc1ccc2[nH]cc(Nc3nc4cc(OC5CCCCC5)ccc4[nH]3)c2n1 [Embodiment 120, N-(5-Chloro-1H-pyrrolo[3,2-b]pyridin-3-yl)-5-(cyclohexyloxy)-1H-benzo[d]imidazol-2-amine formate]	0.1 to 1 µM	* * *	–
Cc1ccc2[nH]c(Nc3c[nH]c4ccc(Cl)nc34)nc2c1 [Embodiment 123, N-(5-chloro-1H-pyrrolo[3,2-b]pyridin-3-yl)-5-methyl-1H-benzo[d] imidazol-2-amine]	0.1 to 1 µM	* * *	–
Clc1ccc2[nH]cc(Nc3nc4cc(I)ccc4[nH]3)c2n1 [Embodiment 124, N-(5-Chloro-1H-pyrrolo[3,2-b]pyridin-3-yl)-5-iodo-1H-benzo[d] imidazol-2-amine]	–	* *	* * *
Clc1ccc2[nH]cc(Nc3nc4cc(C#CC5CC5)ccc4[nH]3)c2n1 [Embodiment 125, N-(5-Chloro-1H-pyrrolo[3,2-b]pyridin-3-yl)-5-(cyclopropylethynyl)-1H-benzo[d]imidazol-2-amine]	0.1 to 1 µM	* *	–
